From patent US8383647B2, “Quinoline derivative” (Takeda Pharmaceutical Company Limited, priority 2009, dated 2013) come the findings set out here.

Series [1] has as its target T1, HERG (Homo sapiens, UniProt Q12809).
T1 construct: host or cells: HERG.T.HEK (HEK cells, Geneticin-selected)
Put plainly: Evaluation of HERG inhibitory activity (whole-cell patch clamp, HERG.T.HEK cells). The series is classed as cell-based. The settings on record: peak tail current. From the text:
MEM medium, MEM nonessential amino acid solution, sodium pyruvate solution and G418 sulfate solution (Geneticin) were purchased from Invitrogen Corporation (Carlsbad, Calif.). Bovine serum albumin (BSA, Fatty Acid Free) was a product of Wako Pure Chemical Industries, Ltd. (Osaka, Japan). Fetal bovine serum (FCS) was a product of Trau Scientific Ltd. (Melbourne, Australia).
As HERG expression cell HERG.T.HEK, the cell obtained from Wisconsin ALUMNI Research Foundation was used. HERG.T.HEK was maintained and passaged at 37° C. in the presence of 5% CO2 using an MEM medium containing 10% FCS, 1 mM MEM nonessential amino acid, 1 mM sodium pyruvate and 500 μg/ml Geneticin.
80-90% confluent cells were collected by a trypsin treatment and plated on an IVF dish (Falcon, Franklin Lakes, N.J.). After 2-3 hr, cells were adhered to a glass electrode (resistance value 2-3 MΩ) filled with an electrode internal fluid (7 mM NaCl, 130 mM KCl, 1 mM MgCl2, 5 mM HEPES, 5 mM EGTA, 5 mM ATP-Na: pH 7.2) while perfusing with an extracellular fluid (137 mM NaCl, 4 mM KCl, 1 mM MgCl2, 1.8 mM CaCl2, 10 mM HEPES, 11 mM dextrose: pH 7.4), using a patch clamp amplifier AXOPATCH 200B (Axon instruments, Foster City, Calif.), whereby formation of whole-cell configuration and stimulation by voltage clamp protocol were performed (holding potential −75 mV, primary voltage 10 mV: 0.5 sec, secondary voltage −40 mV: 0.5 sec, stimulation frequency 5 sec (Example 31 and Example 50) or 10 sec (Comparative Example 1 and Comparative Example 2). A preliminary stimulation was applied and the HERG electric current value (peak tail current) was measured when the electric current waveform was stabilized.
For measurement of the HERG electric current with addition of the test compound, the cells were first perfused with the extracellular fluid and, when the waveform was stabilized, the cells were perfused with an extracellular fluid containing 10 μm of a test compound. When the electric current waveform was stabilized under respective perfuse conditions, the HERG electric current was measured.
The HERG electric current inhibitory rate (%) of the test compound was calculated with the HERG electric current value without addition of the test compound as 100%.
For orientation: Patch clamp records ionic current or voltage across a cell membrane.

For series [2], the system named is HepG2 cells. In words: Evaluation of PLsis (NBD-PE uptake). The series is classed as cell-based. The settings on record: 24 hr exposure, relative to 10 μM Amiodarone, maximum value per unit concentration. The method, then:
DMEM medium, L-glutamine, penicillin-streptomycin, pyruvic acid, and N-(7-nitrobenz-2-oxa-1,3-diazol-4-yl)-1,2-hexadecanoyl-sn-glycero-3-phosphoethanolamine triethylammonium salt (NBD-PE) were purchased from Invitrogen Corporation. As bovine serum albumin (BSA), a product of Thermo Trace Ltd. (Melbourne, Australia) was used, and as Amiodarone, a product of ICN (Costa Mesa, Calif.) was used. A test compound was used in the form of a 10 mM DMSO solution.
FBS was added at a final concentration of 5 vol % to DMEM medium supplemented with L-glutamine, pyruvic acid and penicillin-streptomycin and subjected to the experiment. Culture was performed using 5% carbon dioxide gas-95% air as a gas phase in a CO2 incubator at 37° C. HepG2 cells were suspended in a culture medium at 50×10^4 cells/mL, plated in a 96 well plate at 50 μL/well and precultured for 24 hr. After preculture, the culture medium was removed, a culture medium containing 60 μm NBD-PE was added at 50 μL/well, and a culture medium containing 0, 6 μM or 20 μM test compounds were each added at 50 μL/well to HepG2 cells, and the cells were cultured for 24 hr. As a positive control, Amiodarone was used at a final concentration of 10 μM.
After exposure to the test compound for 24 hr, the fluorescence intensity (Ex. 485 nm, Em. 538 nm) of NBD-PE uptaken by the cells was measured by a fluorometer. The measurement value with addition of 0 μM test compound solution was subtracted as a blank, a relative value to the measurement value with addition of 10 μm Amiodarone was calculated, and the maximum value per unit concentration of the test compound was obtained as a phospholipidosis (PLsis) induction potential.

For series [3], the target named is human SLC-1 (Homo sapiens, UniProt Q99705). In words: MCH receptor antagonistic activity (inhibitory activity, Experimental Example 1). The series is classed as biochemical.
Series [4] deals with rat SLC-1 (Rattus norvegicus, UniProt P97639). In words: MCH receptor antagonistic activity (inhibitory activity, Experimental Example 1). It is filed as biochemical.
The subject of series [5] is Male F344/Jcl rats fed on high-fat diet. In words: Evaluation of anorectic effect using male F344/Jcl rats fed on high-fat diet. The settings on record: 10 mg/kg by gavage, two administrations; food intake from initial administration to 48 hr; relative to control group; obese rat model. The series is classed as in vivo. The method, then:
Male F344/Jcl rats (42-week-old) loaded with a high-fat diet (Research Diets: D12451) from 5 weeks of age were used. From 2 weeks before the start of experiment, the rats were independently raised, a powder high-fat diet (Research Diets: D12451M) was given, tap water (0.5 mL) was administered for acclimation, and thereby the rats were habituated. The food intake from 14:00 the day before the start of experiment to 9:00 the next day was measured, and the rats were grouped based on the food intake and the body weight of the previous day as indices. On the day of the start of experiment and the next day at 16:00, 0.5% methylcellulose solution was administered by gavage to the control group, and 0.5% methylcellulose suspension (10 mg/kg) of the compound was administered by gavage to the compound administration group at 2 mL/kg (6 per group for both control group and compound administration group). The food intake from the initial administration to 48 hr later was measured. The food intake inhibition rate of each compound administration group to the control group was calculated.

Values joined by “and” are separate entries in the source; they are usually repeats but may differ in a detail not shown here. Equal entries are not always repeated. Marks after values point to notes of the source that are not given here.

T1 sequence (Q12809 whole entry): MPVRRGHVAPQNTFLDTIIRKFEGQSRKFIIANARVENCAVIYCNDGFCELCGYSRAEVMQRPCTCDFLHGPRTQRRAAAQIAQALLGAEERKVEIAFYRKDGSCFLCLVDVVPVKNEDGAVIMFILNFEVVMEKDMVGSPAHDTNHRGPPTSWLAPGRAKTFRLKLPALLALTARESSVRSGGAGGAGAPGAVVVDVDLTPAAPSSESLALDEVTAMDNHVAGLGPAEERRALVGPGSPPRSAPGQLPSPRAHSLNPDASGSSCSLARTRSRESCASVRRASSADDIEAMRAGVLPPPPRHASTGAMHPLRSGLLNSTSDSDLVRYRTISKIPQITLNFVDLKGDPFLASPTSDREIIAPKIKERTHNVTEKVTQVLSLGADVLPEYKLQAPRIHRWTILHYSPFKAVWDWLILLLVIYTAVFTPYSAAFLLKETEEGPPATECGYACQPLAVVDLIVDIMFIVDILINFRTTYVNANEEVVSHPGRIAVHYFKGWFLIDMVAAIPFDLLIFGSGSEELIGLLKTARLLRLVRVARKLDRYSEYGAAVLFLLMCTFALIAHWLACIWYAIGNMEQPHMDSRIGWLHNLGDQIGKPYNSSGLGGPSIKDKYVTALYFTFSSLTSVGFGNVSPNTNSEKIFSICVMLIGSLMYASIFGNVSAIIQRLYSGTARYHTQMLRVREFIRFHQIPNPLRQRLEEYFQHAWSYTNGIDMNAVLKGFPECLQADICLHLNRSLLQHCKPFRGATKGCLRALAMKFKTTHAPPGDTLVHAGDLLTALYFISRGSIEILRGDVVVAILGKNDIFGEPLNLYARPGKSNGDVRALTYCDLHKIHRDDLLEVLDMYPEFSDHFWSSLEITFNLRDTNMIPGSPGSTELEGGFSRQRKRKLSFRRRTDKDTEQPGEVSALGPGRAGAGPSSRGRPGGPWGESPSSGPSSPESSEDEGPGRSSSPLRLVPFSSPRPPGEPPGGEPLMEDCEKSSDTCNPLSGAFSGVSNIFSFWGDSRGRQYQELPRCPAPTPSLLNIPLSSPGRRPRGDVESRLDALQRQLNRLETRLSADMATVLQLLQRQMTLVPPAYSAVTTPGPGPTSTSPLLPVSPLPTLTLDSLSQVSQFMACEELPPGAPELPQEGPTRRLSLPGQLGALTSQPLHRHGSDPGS
Sequence of human SLC-1 (Q99705 whole entry): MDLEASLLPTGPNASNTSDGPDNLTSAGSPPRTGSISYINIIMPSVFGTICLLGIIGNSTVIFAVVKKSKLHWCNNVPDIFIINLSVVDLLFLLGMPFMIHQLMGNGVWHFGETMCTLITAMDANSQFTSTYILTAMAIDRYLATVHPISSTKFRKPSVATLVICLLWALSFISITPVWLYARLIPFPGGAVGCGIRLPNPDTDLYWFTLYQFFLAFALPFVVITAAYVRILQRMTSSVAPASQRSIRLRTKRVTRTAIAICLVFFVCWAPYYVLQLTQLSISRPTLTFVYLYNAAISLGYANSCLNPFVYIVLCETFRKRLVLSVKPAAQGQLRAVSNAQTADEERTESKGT
Sequence of rat SLC-1 (P97639 whole entry): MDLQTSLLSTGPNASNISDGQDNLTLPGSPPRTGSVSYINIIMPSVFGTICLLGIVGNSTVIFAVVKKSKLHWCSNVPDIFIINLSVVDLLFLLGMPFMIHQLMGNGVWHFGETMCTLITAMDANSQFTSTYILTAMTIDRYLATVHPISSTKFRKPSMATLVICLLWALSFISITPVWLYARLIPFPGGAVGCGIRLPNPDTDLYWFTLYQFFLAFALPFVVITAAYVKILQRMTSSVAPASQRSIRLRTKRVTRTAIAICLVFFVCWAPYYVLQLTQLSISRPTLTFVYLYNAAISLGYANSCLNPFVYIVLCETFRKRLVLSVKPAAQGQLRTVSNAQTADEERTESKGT

Take `Cc1c(NC(=O)c2ccc(OCC3CC3)cc2)ccc2cc(CN[C@H]3CC[C@H](O)CC3)cnc12` [Com. Ex. 1, 4-(cyclopropylmethoxy)-N-[3-[[(trans-4-hydroxycyclohexyl)amino]methyl]-8-methylquinolin-7-yl]benzamide, reference compound]: in series [1], the “HERG electric current inhibitory rate (%) of 10 μM compound” value is 58%. This compound came in with a PLsis induction potential in series [2] of 23.5.

Consider `Cc1c(NC(=O)c2ccc(OCC3CC3)cc2)ccc2cc(CNC3CCC(C)(O)CC3)cnc12` (stereo not drawn) [Com. Ex. 2, 4-(cyclopropylmethoxy)-N-[3-[[(trans-4-hydroxy-4-methylcyclohexyl)amino]methyl]-8-methylquinolin-7-yl]benzamide, reference compound], for which, in series [1], the “HERG electric current inhibitory rate (%) of 10 μM compound” value worked out at 44.9%. For the same compound, the PLsis induction potential in series [2] worked out at 27.8.

The term IC50 denotes the concentration that inhibits the measured activity by half. Lower therefore signals greater potency. Broadly, the melting point is the temperature of the solid-liquid transition. The compound `Cc1c(NC(=O)c2ccc(OC[C@@H]3CCCO3)cc2)ccc2cc(CNC3CCOCC3)cnc12` [Example 31, N-{8-methyl-3-[(tetrahydro-2H-pyran-4-ylamino)methyl]quinolin-7-yl}-4-[(2S)-tetrahydrofuran-2-ylmethoxy]benzamide] displayed a melting point of 158 to 159 °C. Moreover, in series [3], the IC50 amounted to 3.1 nM. Also, in series [1], the “HERG electric current inhibitory rate (%) of 10 μM compound” value was determined as 9.8%. This compound showed an IC50 in series [4] of 4.3 nM. Besides, the “food intake inhibition rate (%)” value in series [5] was 24.8*** %. The same compound returned a PLsis induction potential in series [2] of 1.7.

As for `Cc1c(NC(=O)c2ccc(OC[C@@H]3CCCO3)cc2)ccc2cc(CN[C@H]3CC[C@](C)(O)CC3)cnc12` [Example 50, N-(3-{[(trans-4-hydroxy-4-methylcyclohexyl)amino]methyl}-8-methylquinolin-7-yl)-4-[(2S)-tetrahydrofuran-2-ylmethoxy]benzamide], the melting point is 165 °C and 169 °C. The compound further returned an IC50 in series [3] of 2.9 nM. In addition, in series [1], the “HERG electric current inhibitory rate (%) of 10 μM compound” value is listed as 2.1%. The compound further gave a half-inhibitory concentration (IC50) in series [4] of 3.9 nM. In series [5], the “food intake inhibition rate (%)” value was 30.3*** %. The PLsis induction potential in series [2] is 1.4.
